Results on 3 molecules are retold here after patent publication US11554113B2, “Methods for treating disorders or diseases associated with hyperlipidemia and hypercholesterolemia while minimizing side-effects” (The Trustees of the University of Pennsylvania, priority 2004, dated 2023).

The structures appear in SMILES notation. Where two headings read alike, the source gives them in different places. Bounds are passed on as bounds.

Data set [1] has as its target microsomal triglyceride transfer protein (MTP) (Homo sapiens, UniProt P55157). As to conditions: for mean percent change in apoB / mean percent change in non-HDL cholesterol / mean percent change in total cholesterol: 6 hoFH subjects. The protocol:
This theory was applied in designing a study investigating the safety, tolerability and efficacy of BMS-201038 in patients with homozygous familial hypercholesterolemia (hoFH).
Subjects received once daily dosing of 4 doses of BMS-201038 (0.03, 0.1, 0.3 and 1.0 mg/kg) for 4 weeks at each dose. We chose an initial low dose (0.03 mg/kg) that while not expecting to be efficacious, would be a dose that would be expected to be safe and well tolerated (˜2.1 mg in the 70 kg person) The remaining three doses were chosen by calculating ½ log units of the previous dose.

In the next data set the test system is apoB secretion. As to conditions: cell culture studies; read-out: IC50 for inhibition of apoB secretion; cited from earlier work.
In a further data set the test system is apoAI secretion. To be noted: cell culture studies; read-out: IC50 for inhibition of apoAI secretion; cited from earlier work.
For data set [2] the following is noted: rats, cited from earlier work.
The conditions of data set [3]: dogs, six-month toxicity study, doses 0-10 mg/kg; cited from earlier work.
The subject of a further data set is cholesterol levels. As to conditions: cited from earlier work.
Data set [4] has as its system low density lipoprotein cholesterol (LDL-C). As to conditions: cited from earlier work.
For data set [5] the following is noted: 25 mg per day for 4 weeks, primary hypercholesterolemia, some patients; cited from earlier work.
The subject of another data set is LDL-C. To be noted: cited from earlier work.
The test system of a further data set is cholesterol. As to conditions: in vivo; cited from earlier work.
The mark [6] stands for this setting: 0.3 mg/kg once daily for 4 weeks (second highest dose).
The mark [7] stands for this setting: 1.0 mg/kg once daily for 4 weeks (highest dose).
Where [8] appears, read: dose of 10 mg/kg, rabbits that lack a functional LDL receptor.

Chain of microsomal triglyceride transfer protein (MTP) (P55157 19-894): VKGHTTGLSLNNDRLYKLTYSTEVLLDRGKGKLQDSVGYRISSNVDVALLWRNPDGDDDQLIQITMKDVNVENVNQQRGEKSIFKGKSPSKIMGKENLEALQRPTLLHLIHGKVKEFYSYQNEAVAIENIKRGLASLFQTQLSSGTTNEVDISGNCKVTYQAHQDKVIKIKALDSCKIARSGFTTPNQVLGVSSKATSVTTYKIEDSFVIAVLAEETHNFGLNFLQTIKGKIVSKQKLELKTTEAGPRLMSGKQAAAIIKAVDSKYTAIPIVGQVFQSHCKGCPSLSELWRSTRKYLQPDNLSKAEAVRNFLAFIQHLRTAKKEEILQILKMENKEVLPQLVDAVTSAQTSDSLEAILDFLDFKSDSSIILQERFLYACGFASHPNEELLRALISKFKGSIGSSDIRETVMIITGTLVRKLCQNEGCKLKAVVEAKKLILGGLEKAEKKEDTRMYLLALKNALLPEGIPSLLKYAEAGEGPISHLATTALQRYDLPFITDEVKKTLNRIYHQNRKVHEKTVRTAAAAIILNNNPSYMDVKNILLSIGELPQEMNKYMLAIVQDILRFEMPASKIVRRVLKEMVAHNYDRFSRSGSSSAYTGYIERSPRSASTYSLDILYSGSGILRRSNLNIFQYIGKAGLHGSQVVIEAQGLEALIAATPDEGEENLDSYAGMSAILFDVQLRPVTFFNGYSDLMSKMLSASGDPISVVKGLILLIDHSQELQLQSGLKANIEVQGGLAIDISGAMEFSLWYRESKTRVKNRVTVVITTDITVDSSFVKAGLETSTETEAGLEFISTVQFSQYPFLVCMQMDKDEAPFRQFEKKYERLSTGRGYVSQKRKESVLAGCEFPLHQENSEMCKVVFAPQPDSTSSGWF
Chain of microsomal triglyceride transfer protein (MTP) (P07237 18-508 partner): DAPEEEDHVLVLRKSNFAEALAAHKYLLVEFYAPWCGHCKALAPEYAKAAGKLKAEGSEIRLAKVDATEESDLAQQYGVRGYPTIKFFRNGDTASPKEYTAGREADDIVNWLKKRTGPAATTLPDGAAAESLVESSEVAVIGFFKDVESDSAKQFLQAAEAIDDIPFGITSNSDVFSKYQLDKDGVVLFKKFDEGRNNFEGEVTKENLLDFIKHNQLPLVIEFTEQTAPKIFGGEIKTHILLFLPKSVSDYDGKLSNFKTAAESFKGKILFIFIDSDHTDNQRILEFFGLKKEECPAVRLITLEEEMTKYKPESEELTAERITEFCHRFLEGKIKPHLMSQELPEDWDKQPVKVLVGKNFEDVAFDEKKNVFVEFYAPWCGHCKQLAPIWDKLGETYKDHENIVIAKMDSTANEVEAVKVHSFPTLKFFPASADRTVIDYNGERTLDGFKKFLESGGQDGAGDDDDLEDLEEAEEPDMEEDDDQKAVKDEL

Regarding `O=C(NC1CCN(CCCCC2(C(=O)NCC(F)(F)F)c3ccccc3-c3ccccc32)CC1)c1ccccc1-c1ccc(C(F)(F)F)cc1` [BMS-201038, N-(2,2,2-Trifluorethyl)-9-[4-[4-[[[4′-(trifluoromethyl) [1,1′biphenyl]-2-Y1]carbonyl]amino]-1-piperidinyl]butyl]9H-fluorene-9-carboxamide, methanesulfonate], in data set [1] (setting [6]), the “mean percent change in apoB” value is recorded as −15±16%, the “mean percent change in non-HDL cholesterol” value was −31±9% and the “mean percent change in total cholesterol” value is −30±9%. In [1] (setting [7]), the “mean percent change in apoB” value is −55±13%, the “mean percent change in non-HDL cholesterol” value was −60±8.8% and the “mean percent change in total cholesterol” value is −58±8.5%. The “increase in hepatic fat by NMRS from baseline to 4 weeks on 1 mg/kg” value in data set [1] (human, in vivo, 4 weeks) is listed as 3-37%. Besides, the IC50 in the data set on apoB secretion was 0.0008 µM. Moreover, the IC50 with apoAI secretion was 6.5 µM. In [2] (six-month toxicity study, doses 0-20 mg/kg), the “doses associated with subacute inflammation and single-cell necrosis of hepatocytes and histiocytosis (phospholipidosis) in the lungs” value is ≥ 0.2 mg/kg. Also, in [2], the “hepatic accumulation of lipids at the end of a 1-month washout period” value was “reversed”. Further, in data set [3], the “subacute inflammation and single-cell necrosis of hepatocytes and histiocytosis (phospholipidosis) in the lungs” value is on record as “not in dogs”. For the same molecule, in the data set with cholesterol levels (10 mg/kg, animal study by Wetterau and colleagues), the LDL cholesterol reduction entry is given as “greater than 80%”. Moreover, in the data set on cholesterol levels (setting [8]), the cholesterol levels result is “essentially normalized” and the “plasma AST or ALT” value was “no alteration”. Also, the “ED50 value for lowering cholesterol” value in the data set with cholesterol levels (rabbits that lack a functional LDL receptor) is 1.9 mg/kg. Besides, in [4] (healthy volunteers with hypercholesterolemia), the “reduction of low density lipoprotein cholesterol (LDL-C)” value was “up to 65%”. Besides, the “doses at which gastrointestinal side effects/steatorrhea, elevation of serum transaminases and hepatic fat accumulation were primarily observed” value in data set [4] (human clinical development) is given as ≥ 25 mg/day. Also, the “gastrointestinal (GI) symptoms (steatorrhea, abdominal cramping and distention)” value in data set [5] is on record as “clinically significant”.
As for `O=C1[C@H](CC[C@H](O)c2ccc(F)cc2)[C@@H](c2ccc(O)cc2)N1c1ccc(F)cc1` [ezetimibe], the “total reduction of LDL-C levels” value in the data set on LDL-C (ezetimibe 10 mg/day added to atorvastatin or simvastatin 80 mg/day, hoFH) was 27%. The “reduction of LDL cholesterol” value in the data set with cholesterol is “about 18%”.
For `CC(C)c1c(C(=O)Nc2ccccc2)c(-c2ccccc2)c(-c2ccc(F)cc2)n1CC[C@@H](O)C[C@@H](O)CC(=O)O` [atorvastatin], the “mean LDL-C reduction” value in the data set with LDL-C (genotype-confirmed hoFH, maximal dose of statins 80 mg/day) is “about 5.5%”.

One may read the IC50 as the concentration that gives 50% inhibition.
